In the assay the target is T1, PKC-alpha (Homo sapiens, UniProt P17252).
T1 construct: gene PRKCA
Put plainly: IMAP-FP kinase activity assay (Proteros selectivity panel), single concentration […], ATP at Km app; […] inhibition. Format: biochemical.

The inhibition is the share of the control response that was lost under treatment.

SMILES strings stand for the structures.

With `C=CC(=O)NC(c1ccccc1)C(C(=O)/C=C/c1cccc(O)c1)C(=O)/C=C/c1cccc(O)c1` (stereo not shown) [compound 3, N-((E)-5-(3-hydroxyphenyl)-2-((E)-3-(3-hydroxyphenyl)acryloyl)-3-oxo-1-phenylpent-4-en-1-yl)acrylamide], the inhibition at 1 µM worked out at 32.8%.
